How the values were obtained:
[1] = Pharmacokinetic study in the rat; type: in vivo
Description: Assay 6: Pharmacokinetic Study in the Rat
Aqueous solution formulations of test compounds were prepared in 0.1% lactic acid at a pH of between about 5 and about 6. Male Sprague-Dawley rats (CD strain, Charles River Laboratories, Wilmington, Mass.) were dosed with test compounds via intravenous administration (IV) at a dose of 2.5 mg/kg or by oral gavage (PO) at a dose of 5 mg/kg. The dosing volume was 1 mL/kg for IV and 2 mL/kg for PO administration. Serial blood samples were collected from animals pre-dose, and at 2 (IV only), 5, 15, and 30 min, and at 1, 2, 4, 8, and 24 hours post-dose.
Standard pharmacokinetic parameters were assessed by non-compartmental analysis (Model 201 for IV and Model 200 for PO) using WinNonlin (Version 4.0.1, Pharsight, Mountain View, Calif.). The maximum in the curve of test compound concentration in blood plasma vs. time is denoted Cmax. The area under the concentration vs. time curve from the time of dosing to the last measurable concentration (AUC(0-t)) was calculated by the linear trapezoidal rule.

[2] = Dynamic moisture sorption assessment; type: physicochemical; conditions: 25° C.
Description: Dynamic Moisture Sorption Assessment
Dynamic moisture sorption (DMS) assessment was performed at 25° C. using a VTI atmospheric microbalance, SGA-100 system (VTI Corp., Hialeah, Fla. 33016). A sample size of approximately 5-10 mg was used and the humidity was set at the ambient value at the start of the analysis. A typical DMS analysis consisted of three scans: ambient to 2% relative humidity (RH), 2% RH to 90% RH, 90% RH to 5% RH at a scan rate of 5% RH/step. The mass was measured every two minutes and the RH was changed to the next value (±5% RH) when the mass of the sample was stable to within 0.02% for 5 consecutive points.

[3] = Solid state stability assessment; type: physicochemical; conditions: three months at 40° C. and 75% RH, open glass vials
Description: Solid State Stability Assessment
Samples of the crystalline compound of Form I, prepared according to the process of Example 216, were stored in multiple open glass vials at 40° C. and 75% RH. At specific intervals, the contents of a representative vial was removed and analyzed by DSC, TGA, PXRD, and by HPLC for chemical purity.

[4] = Description: Thermogravimetric analysis (TGA) was performed using a TA Instruments Model Q-500 module. Data were collected and analyzed using TA Instruments Thermal Advantage for Q Series™ software. A sample weighing about 2 mg was placed in an aluminum pan on a platinum cradle and scanned from ambient temperature to about 300° C. with a linear heating rate of 10° C./min. The balance and furnace chambers were purged with nitrogen during use.
[5] = male Sprague-Dawley rats, PO 5 mg/kg, blood plasma

SMILES	AUC(0-t) [1, 5] [ng·h/mL]	Cmax [1, 5] [ng/mL]	bioavailability ([1]; male, Sprague-Dawley, plasma, PO 5 mg/kg vs IV 2.5 mg/kg, read-out: oral bioavailability (F(%))) [%]	weight change (moisture sorption) ([2]; 2% to 90% RH)	weight change (moisture sorption) ([2]; critical humidity range of 40% to 75% RH)	change in the DSC or TGA thermograms and PXRD pattern after storage [3]	chemical purity of the stored sample (HPLC) [3] [%]	onset of degradation (TGA) [4]
COC(=O)N1CCC(CN2CCC(CNC(=O)c3cccc4[nH]c(C(C)C)nc34)CC2)CC1 [Example 1, 4-(4-{[(2-isopropyl-1H-benzoimidazole-4-carbonyl)-amino]methyl}piperidin-1-ylmethyl)piperidine-1-carboxylic acid methyl ester]	1200	800	~75	–	–	–	–	–
COC(=O)N1CCC(CN2CCC(CNC(=O)c3cccc4[nH]c(C(C)C)nc34)CC2)CC1 [Form I, 4-(4-{[(2-isopropyl-1H-benzoimidazole-4-carbonyl)-amino]methyl}piperidin-1-ylmethyl)piperidine-1-carboxylic acid methyl ester]	–	–	–	less than 0.25%	less than 0.1%	no detectable change	99.5	above 240 °C

From patent US8143279B2, “Benzimidazole-carboxamide compounds as 5-HT4 receptor agonists” (Theravance, Inc., priority 2005, dated 2012)
